Patent publication US6479499B1
In brackets after ≈: the same amount, converted by molar mass. Where two headings read alike, the source gives them in different places. One block for each compound: values may come before it.

What was measured:
bone (HOS) = assay: In vitro cytotoxicity, HOS; settings: Homo sapiens; for IC50: 96 h, read-out: ED50 HOS; for inhibition at 20 µg/mL: read-out: Inhibition at highest test concentration (in brackets), HOS
prostate cancer (PC3) = assay: In vitro cytotoxicity, PC3; settings: Homo sapiens; for IC50: 96 h, read-out: ED50 PC3; for inhibition at 20 µg/mL: read-out: Inhibition at highest test concentration (in brackets), PC3
[1] = test system: epidermoid carcinoma of the nasopharynx (KB); assay: In vitro cytotoxicity, KB; settings: Homo sapiens; for IC50: 96 h, read-out: ED50 KB
[2] = test system: human ovarian cancer (1A9); assay: In vitro cytotoxicity, 1A9; settings: 96 h, read-out: ED50 1A9
lung carcinoma (A-549) = assay: In vitro cytotoxicity, A-549; settings: Homo sapiens; for IC50: A549, 96 h, read-out: ED50 A-549
breast cancer (MCF-7) = assay: In vitro cytotoxicity, MCF-7; settings: Homo sapiens; for IC50: MCF7, 96 h, read-out: ED50 MCF-7; for inhibition at 20 µg/mL: MCF7, read-out: Inhibition at highest test concentration (in brackets), MCF-7
[3] = test system: P-gp-expressing epidermoid carcinoma of the nasopharynx (KB-VIN); assay: In vitro cytotoxicity, KB-VIN; settings: Homo sapiens, KBVIN, 96 h, read-out: ED50 KB-VIN
[4] = test system: ten human tumor cell lines; assay: In vitro cytotoxicity, statements on the panel of tumor cell lines
bovine brain tubulin = assay: Tubulin polymerization assay (antimicrotubule assay); settings: read-out: ITP (inhibition of tubulin polymerization) IC50; tubulin […] (12 μM), 26° C., 20 min
melanoma (SKMEL-2) = assay: In vitro cytotoxicity, SKMEL-2; settings: for IC50 / inhibition at 20 µg/mL: Homo sapiens; for IC50: SK-MEL-2, 96 h, read-out: ED50 SKMEL-2; for inhibition at 20 µg/mL: SK-MEL-2, read-out: Inhibition at highest test concentration (in brackets), SKMEL-2
glioblastoma (U-87-MG) = assay: In vitro cytotoxicity, U-87-MG; settings: Homo sapiens; for IC50: 96 h, read-out: ED50 U-87-MG; for inhibition at 20 µg/mL: read-out: Inhibition at highest test concentration (in brackets), U-87-MG
[5] = test system: ileocecal carcinoma (HCT-8); assay: In vitro cytotoxicity, HCT-8; settings: Homo sapiens; for IC50: HCT-8, 96 h, read-out: ED50 HCT-8
[6] = test system: platelet aggregation induced by platelet-activating factor (PAF); assay: Antiplatelet assay, PAF-induced aggregation; format: cell-based, rabbit; settings: for Percent aggregation, PAF: PAF 2 ng/ml
Procedure: (§1) c. Antiplatelet assay. Blood, collected from the marginal ear vein of rabbits was mixed with EDTA to a final concentration of 6 mM and centrifuged at 90 g for 10 mm at room temperature to obtain platelet-rich plasma. The latter was further centrifuged at 500 g for 10 mm and the platelets were washed with Tyrode's solution without EDTA. After centrifugation at the same conditions, the platelets were suspended in Tyrode's solution with the following compositions (mM): NaCl (136.8), KCl (2.8), NaNCO3(11.9), MgCl2(1.1), NaH2PO4(0.33), CaCl2(1.0), and glucose (11.2). Platelet numbers were determined with a Coulter Counter (Model ZM) and adjusted to 4.5×10^8 platelets/ml.
(§2) Aggregation was measured by the turbidimetric method [O'brien, J. R. J. Clin. Pathol. 1962, 15,452] with a dual-channel Lumi aggregometer (Model 1020, Payton, Canada). All glass ware was siliconized. Test compounds were added one minute before the addition of the aggregation inducer and the platelet suspension was stirred at 900 rpm. The percentage of aggregation was calculated as previously described [Teng, C. M.; Chen, W. Y.; Ko, W. C.; Ouyang, C. Biochem. Biophys. Acta. 1987, 924, 375].

[7] = test system: platelet aggregation induced by arachidonic acid (AA); assay: Antiplatelet assay, arachidonic acid-induced aggregation; format: cell-based, rabbit; settings: for IC50: Oryctolagus cuniculus, Platelet; for IC50 / Percent aggregation, AA: AA 100 μM
Procedure: as §1, §2

[8] = test system: platelet aggregation induced by thrombin; assay: Antiplatelet assay, thrombin-induced aggregation; format: cell-based, rabbit; settings: for Percent aggregation, thrombin: thrombin 0.1 U/ml
Procedure: as §1, §2

[9] = test system: platelet aggregation induced by collagen; assay: Antiplatelet assay, collagen-induced aggregation; format: cell-based, rabbit
Procedure: as §1, §2

Structure (SMILES): COc1ccc(OC)c(C2NC(=O)c3ccccc3N2)c1 (racemic) [Compound 65, 2,3-Dihydro-2-(2′,5′-dimethoxyphenyl)-4-quinazolinone]
IC50 (bone (HOS)): > 20 µg/mL | inhibition at 20 µg/mL (bone (HOS)): 40% | IC50 (prostate cancer (PC3)): > 20 µg/mL | inhibition at 20 µg/mL (prostate cancer (PC3)): 22% | IC50 [1]: > 20 µg/mL | inhibition at 20 µg/mL ([1]; read-out: Inhibition at highest test concentration (in brackets), KB): 40% | IC50 [2]: 10 µg/mL (≈ 35.2 µM) | IC50 (lung carcinoma (A-549)): > 20 µg/mL | inhibition at 20 µg/mL (lung carcinoma (A-549); A549, read-out: Inhibition at highest test concentration (in brackets), A-549): 42% | IC50 (breast cancer (MCF-7)): > 20 µg/mL | inhibition at 20 µg/mL (breast cancer (MCF-7)): 42% | IC50 [3]: 8.4 µg/mL (≈ 29.5 µM) | IC50 (bovine brain tubulin): 32 ± 4 µM | IC50 (melanoma (SKMEL-2)): > 20 µg/mL | inhibition at 20 µg/mL (melanoma (SKMEL-2)): 44% | IC50 (glioblastoma (U-87-MG)): > 20 µg/mL | inhibition at 20 µg/mL (glioblastoma (U-87-MG)): 5% | IC50 [5]: > 20 µg/mL | inhibition at 20 µg/mL ([5]; HCT-8, read-out: Inhibition at highest test concentration (in brackets), HCT-8): 32%

Structure (SMILES): COc1cc(OC)cc(C2NC(=O)c3ccccc3N2)c1 (racemic) [Compound 67, 2,3-Dihydro-2-(3′,5′-dimethoxyphenyl)-4-quinazolinone]
IC50 (bone (HOS)): > 20 µg/mL | inhibition at 20 µg/mL (bone (HOS)): 41% | IC50 (prostate cancer (PC3)): > 20 µg/mL | inhibition at 20 µg/mL (prostate cancer (PC3)): 44% | IC50 [1]: 4.7 µg/mL (≈ 16.5 µM) | IC50 [2]: 1.92 µg/mL (≈ 6.75 µM) | IC50 (lung carcinoma (A-549)): 5 µg/mL (≈ 17.6 µM) | IC50 (breast cancer (MCF-7)): > 20 µg/mL | inhibition at 20 µg/mL (breast cancer (MCF-7)): 49% | IC50 [3]: 1.6 µg/mL (≈ 5.63 µM) | IC50 (bovine brain tubulin): 12 ± 3 µM | IC50 (melanoma (SKMEL-2)): 4.4 µg/mL (≈ 15.5 µM) | IC50 (glioblastoma (U-87-MG)): > 20 µg/mL | inhibition at 20 µg/mL (glioblastoma (U-87-MG)): 37% | IC50 [5]: 3 µg/mL (≈ 10.6 µM)

Further lines, with some results ahead:

IC50 (bovine brain tubulin): 5.6 ± 1 µM
Structure (SMILES): COc1cccc(C2NC(=O)c3ccccc3N2)c1 (racemic) [Compound 61, 2,3-Dihydro-2-(3′-methoxyphenyl)-4-quinazolinone]
IC50 (bone (HOS)): > 20 µg/mL | inhibition at 20 µg/mL (bone (HOS)): 42% | IC50 (prostate cancer (PC3)): > 20 µg/mL | inhibition at 20 µg/mL (prostate cancer (PC3)): 43% | IC50 [1]: 3 µg/mL (≈ 11.8 µM) | IC50 [2]: 1 µg/mL (≈ 3.93 µM) | IC50 (lung carcinoma (A-549)): 3 µg/mL (≈ 11.8 µM) | IC50 (breast cancer (MCF-7)): > 20 µg/mL | inhibition at 20 µg/mL (breast cancer (MCF-7)): 48% | IC50 [3]: 1.2 µg/mL (≈ 4.72 µM) | Times more active than 2′-methoxy (60) ([4]; more sensitive cell lines): about 15 times | Times more active than 4′-methoxy (62) ([4]; more sensitive cell lines): ~20 times | IC50 (melanoma (SKMEL-2)): > 20 µg/mL | inhibition at 20 µg/mL (melanoma (SKMEL-2)): 49% | IC50 (glioblastoma (U-87-MG)): > 20 µg/mL | inhibition at 20 µg/mL (glioblastoma (U-87-MG)): 35% | IC50 [5]: 1.5 µg/mL (≈ 5.9 µM)

IC50 (bovine brain tubulin): 1.5 ± 0.01 µM
Structure (SMILES): COc1cccc(C2NC(=O)c3cc(Cl)ccc3N2)c1 (racemic) [Compound 68, 2,3-Dihydro-2-(3′-methoxyphenyl)-6-chloro-4-quinazolinone]
IC50 (bone (HOS)): 20 µg/mL (≈ 69.3 µM) | IC50 (prostate cancer (PC3)): 2.5 µg/mL (≈ 8.66 µM) | IC50 [1]: 0.95 µg/mL (≈ 3.29 µM) | IC50 [2]: 0.27 µg/mL (≈ 0.935 µM) | IC50 (lung carcinoma (A-549)): 0.6 µg/mL (≈ 2.08 µM) | IC50 (breast cancer (MCF-7)): 16 µg/mL (≈ 55.4 µM) | IC50 [3]: 0.42 µg/mL (≈ 1.45 µM) | ED50, times less than that of 61 [4]: about 5 times | IC50 (melanoma (SKMEL-2)): < 2.5 µg/mL | Inhibition value of plateau-dose response (in brackets), SKMEL-2 (melanoma (SKMEL-2); plateau-dose response, inhibition plateaus over broad dose range): 56% | IC50 (glioblastoma (U-87-MG)): > 20 µg/mL | inhibition at 20 µg/mL (glioblastoma (U-87-MG)): 37% | IC50 [5]: 0.48 µg/mL (≈ 1.66 µM)

IC50 ([7]; 37° C., 1 min preincubation, read-out: IC50, platelet aggregation induced by arachidonic acid (in vitro) (Table 6)): 1.6 µM | IC50 ([7]; read-out: IC50, AA-induced platelet aggregation (Table 5)): 1.6 µM | IC50 ([9]; Oryctolagus cuniculus, Platelet, collagen 10 μg/ml, read-out: IC50, collagen-induced platelet aggregation (Table 5)): 9.2 µM
Structure (SMILES): CCOc1nc(-c2ccccc2)nc2ccccc12 [Compound 70, 4-Ethoxy-2-phenylquinazoline]
Inhibition of PAF-induced platelet aggregation in words ([6]; Table 5): poor inhibitors | Percent aggregation, PAF ([6]; compound 20 μg/ml): 88.8 ± 1.0(4) % | Percent aggregation, PAF ([6]; compound 50 μg/ml): 19.8 ± 7.0(4) % | Percent aggregation, PAF ([6]; compound 100 μg/ml): 2.1 ± 1.8(4) % | Inhibition of AA-induced platelet aggregation in words ([7]; Table 5): relatively stronger inhibitors | Percent aggregation, AA ([7]; compound 0.1 μg/ml): 85.5 ± 2.0(5) % | Percent aggregation, AA ([7]; compound 0.2 μg/ml): 76.9 ± 5.4(5) % | Percent aggregation, AA ([7]; compound 0.5 μg/ml): 33.8 ± 13.4(5) % | Percent aggregation, AA ([7]; compound 1 μg/ml): 0.0 ± 0.0(5) % | Percent aggregation, AA ([7]; compound 100 μg/ml): 0.0 ± 0.0(5) % | Inhibition of thrombin-induced platelet aggregation in words ([8]; Table 5): poor inhibitors | Percent aggregation, thrombin ([8]; compound 20 μg/ml): 91.5 ± 1.2(4) % | Percent aggregation, thrombin ([8]; compound 50 μg/ml): 75.1 ± 7.3(4) % | Percent aggregation, thrombin ([8]; compound 100 μg/ml, 37° C., 1 min preincubation): 11.7 ± 6.5(4) % | Inhibition of collagen-induced platelet aggregation in words ([9]; Table 5): relatively stronger inhibitors | Percent aggregation, collagen ([9]; compound 0.1 μg/ml, collagen 10 μg/ml): 86.4 ± 2.9(4) % | Percent aggregation, collagen ([9]; compound 0.2 μg/ml, collagen 10 μg/ml): 78.5 ± 4.7(4) % | Percent aggregation, collagen ([9]; compound 0.5 μg/ml, collagen 10 μg/ml): 63.9 ± 7.4(4) % | Percent aggregation, collagen ([9]; compound 1 μg/ml, collagen 10 μg/ml): 47.1 ± 6.6(4) % | Percent aggregation, collagen ([9]; compound 2 μg/ml, collagen 10 μg/ml): 35.0 ± 10.3(4) % | Percent aggregation, collagen ([9]; compound 5 μg/ml, collagen 10 μg/ml): 30.1 ± 9.0(4) % | Percent aggregation, collagen ([9]; compound 10 μg/ml, collagen 10 μg/ml): 19.3 ± 9.8(4) % | Percent aggregation, collagen ([9]; compound 20 μg/ml, collagen 10 μg/ml): 10.3 ± 6.0(4) % | Percent aggregation, collagen ([9]; compound 50 μg/ml, collagen 10 μg/ml): 0.0 ± 0.0(4) % | Percent aggregation, collagen ([9]; compound 100 μg/ml, collagen 10 μg/ml): 0.0 ± 0.0(4) %
